Reference: the supplement of paper PMC8633005

What was measured:
Assay in all cases: drug sensitivity score (DSS) (DSS (unitless, 0-50 scale)); higher = more sensitive (stronger viability inhibition); extreme values may be limits of the assay
Conditions in all cases: 72 h; culture: 2D
WM165 = test system: WM165
Procedure, shortened: (§1)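 Patient-derived melanoma cultures and melanoma cell lines were grown in 2D in 384-well plates with a 527-compound oncology library at five concentrations spanning a 10,000-fold range, with 1000–1500 cells per well for the cultures. CellTiter-Glo luminescence gave viability after 72 h at 37 °C. The drug sensitivity score is a modified area-under-curve measure derived from dose-response curves fitted in the in-house Breeze software.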

WM852 = test system: WM852
Procedure, shortened: as §1

SK-MEL-28 = test system: SK-MEL-28
Procedure, shortened: as §1

SK-MEL-2 = test system: SK-MEL-2
Procedure, shortened: as §1

FM-MEL-3 = test system: FM-MEL-3
Procedure, shortened: as §1

Bowes = test system: Bowes
Procedure, shortened: as §1

FM-MEL-6 = test system: FM-MEL-6
Procedure, shortened: as §1

FM-MEL-2 = test system: FM-MEL-2
Procedure, shortened: as §1

Nc1nc(N)c2nc(-c3cccc(O)c3)c(-c3cccc(O)c3)nc2n1 [TG100-115]
drug sensitivity score (WM165): 0
drug sensitivity score (WM852): 0
drug sensitivity score (SK-MEL-28): 0
drug sensitivity score (SK-MEL-2): 0
drug sensitivity score (FM-MEL-3): 0
drug sensitivity score (Bowes): 2.9
drug sensitivity score (FM-MEL-6): 1
drug sensitivity score (FM-MEL-2): 1.8

CC(C)Oc1ccc(-c2nn([C@@H](C)c3oc4ccc(F)cc4c(=O)c3-c3cccc(F)c3)c3ncnc(N)c23)cc1F [TGR-1202]
drug sensitivity score (WM165): 0
drug sensitivity score (WM852): 1
drug sensitivity score (SK-MEL-28): 0
drug sensitivity score (SK-MEL-2): 0
drug sensitivity score (FM-MEL-3): 0
drug sensitivity score (Bowes): 0.9
drug sensitivity score (FM-MEL-6): 0
drug sensitivity score (FM-MEL-2): 0.9

Cc1cc(C(C)Nc2ccccc2)c2nc(N3CCOCC3)cc(=O)n2c1 (stereo not given) [TGX-221]
drug sensitivity score (WM165): 0.1
drug sensitivity score (WM852): 1.2
drug sensitivity score (SK-MEL-28): 3.3
drug sensitivity score (SK-MEL-2): 0
drug sensitivity score (FM-MEL-3): 1.1
drug sensitivity score (Bowes): 0.6
drug sensitivity score (FM-MEL-6): 0.9
drug sensitivity score (FM-MEL-2): 2.2

Nc1nc(NC2CC2)cc(-c2cccc(Cl)c2Cl)n1 [TH588]
drug sensitivity score (WM165): 0.9
drug sensitivity score (WM852): 4.3
drug sensitivity score (SK-MEL-28): 0
drug sensitivity score (SK-MEL-2): 0
drug sensitivity score (FM-MEL-3): 2.2
drug sensitivity score (Bowes): 0
drug sensitivity score (FM-MEL-6): 0
drug sensitivity score (FM-MEL-2): 0

Clc1ccccc1C(c1ccccc1)(c1ccccc1)n1cccn1 [TRAM-34]
drug sensitivity score (WM165): 0
drug sensitivity score (WM852): 0
drug sensitivity score (SK-MEL-28): 0
drug sensitivity score (SK-MEL-2): 0
drug sensitivity score (FM-MEL-3): 0
drug sensitivity score (Bowes): 0
drug sensitivity score (FM-MEL-6): 0
drug sensitivity score (FM-MEL-2): 0

CC(=O)Nc1ccc(C(=O)Nc2ccccc2N)cc1 [Tacedinaline]
drug sensitivity score (WM165): 0
drug sensitivity score (WM852): 1.5
drug sensitivity score (SK-MEL-28): 0
drug sensitivity score (SK-MEL-2): 0
drug sensitivity score (FM-MEL-3): 2.7
drug sensitivity score (Bowes): 0
drug sensitivity score (FM-MEL-6): 1.7
drug sensitivity score (FM-MEL-2): 1.6

C=CC[C@@H]1/C=C(\C)C[C@H](C)C[C@H](OC)[C@H]2O[C@@](O)(C(=O)C(=O)N3CCCC[C@H]3C(=O)O[C@H](/C(C)=C/[C@@H]3CC[C@@H](O)[C@H](OC)C3)[C@H](C)[C@@H](O)CC1=O)[C@H](C)C[C@@H]2OC [Tacrolimus]
drug sensitivity score (WM165): 0
drug sensitivity score (WM852): 0.1
drug sensitivity score (SK-MEL-28): 0
drug sensitivity score (SK-MEL-2): 0
drug sensitivity score (FM-MEL-3): 1.3
drug sensitivity score (Bowes): 0.6
drug sensitivity score (FM-MEL-6): 0.1
drug sensitivity score (FM-MEL-2): 1.9

CN(C(=O)c1ccc(F)cc1C(F)(F)F)C1CCN(c2nnc(-c3ccnn3C)c3ccccc23)CC1 [Taladegib]
drug sensitivity score (WM165): 0
drug sensitivity score (WM852): 0
drug sensitivity score (SK-MEL-28): 0
drug sensitivity score (SK-MEL-2): 0
drug sensitivity score (FM-MEL-3): 0
drug sensitivity score (Bowes): 0
drug sensitivity score (FM-MEL-6): 0
drug sensitivity score (FM-MEL-2): 0.4

Cn1ncnc1[C@H]1c2n[nH]c(=O)c3cc(F)cc(c23)N[C@@H]1c1ccc(F)cc1 [Talazoparib]
drug sensitivity score (WM165): 11.7
drug sensitivity score (WM852): 0
drug sensitivity score (SK-MEL-28): 0.1
drug sensitivity score (SK-MEL-2): 0
drug sensitivity score (FM-MEL-3): 2.3
drug sensitivity score (Bowes): 0
drug sensitivity score (FM-MEL-6): 2.3
drug sensitivity score (FM-MEL-2): 0.4

C[C@@H]1CN(Cc2ccc(F)cc2)[C@@H](C)CN1C(=O)c1cc2c(C(=O)C(=O)N(C)C)cn(C)c2cc1Cl [Talmapimod]
drug sensitivity score (WM165): 0
drug sensitivity score (WM852): 0
drug sensitivity score (SK-MEL-28): 0
drug sensitivity score (SK-MEL-2): 0
drug sensitivity score (FM-MEL-3): 0
drug sensitivity score (Bowes): 0
drug sensitivity score (FM-MEL-6): 0
drug sensitivity score (FM-MEL-2): 0
